Measurements reported in patent US20100239568A1, “DIAGNOSTICS AND TREATMENTS FOR TUMORS” (GENENTECH, INC., priority 2006, published 2010).

What was measured:
[1] = system: TIB6 tumors; test: Tumor growth of TIB6 tumors in mice; assay type: in vivo, mouse; details: TIB6 in C57BL/6; 5FU 50 mg/kg once a week, Gemcitabine 120 mg/kg twice a week, IP; day 17
Procedure: (§1) Cell Lines. The EL4, LLC, B16F1 and TIB6 (J558) tumor cell lines were obtained from American Type Culture Collection (ATCC) and maintained in tissue culture in high glucose Dulbecco's Modified Medium (DMEM) and supplemented with 10% fetal bovine serum (FBS) and 2 mM glutamine. The terms “B16F1” and “B16” are used interchangeably herein to refer to the same melanoma cell line.
(§2) Antibodies. Anti-VEGF, such as G6-23, is an antibody that binds to and neutralizes murine and human forms of VEGF. Derived from phage display technology, the IgG portion comprised murine isotype IgG2a (see, e.g., Malik, A. K. et al. Redundant roles of VEGF-B and P1GF during selective VEGF-A blockade in mice. Blood 107:550-7 (2006)) and was dosed at 10 mg/kg, IP, twice weekly unless indicated otherwise. Isotype-matched control antibody was anti-human ragweed-IgG2a (Genentech, Inc.). […] Tumor measurement was performed twice/week and terminal tumor weights were determined as described above.
B16F1 admixing experiments. […] Tumor size was assessed using Vernier calipers 2-3 times per week after tumors reached a palpable size. Tumor volume was determined using the Pi/6×L×W×W formula with L as the longest diameter and W the diameter at the position perpendicular to L.
Chemotherapy. […] Tumor volume was measured twice a week and was calculated as described.

[2] = system: EL4 tumors; test: Tumor growth of EL4 tumors in mice; assay type: in vivo, mouse; details: EL4 in C57BL/6; 5FU 50 mg/kg once a week, Gemcitabine 120 mg/kg twice a week, IP; day 17
Procedure: as §1
as §2, with “Inc.). Anti-CD11b+ antibody (eBioSciences), anti-L-selectin (BD BioSciences) and anti-CXCR4 (Torrey Pines Lab) were used in FACS experiments.” for “Inc.).”, “above. […]” for “above.”
(§3) B16F1 admixing experiments. […] Tumor size was assessed using Vernier calipers 2-3 times per week after tumors reached a palpable size. Tumor volume was determined using the Pi/6×L×W×W formula with L as the longest diameter and W the diameter at the position perpendicular to L. […]

[3] = system: CD11b+Gr1+ cells; test: Flow cytometry of myeloid cells in tumor, bone marrow and peripheral blood of treated mice; assay type: in vivo, mouse; details: for CD11b+Gr1+ cells in B16F1 tumors after chemotherapy: tumor isolates after 17 days
Procedure: Flow cytometry. Tumors of control and anti-VEGF-treated mice were isolated and single cell suspension was generated by chopping of tumor tissues followed by treatment with a cell homogenizer (VWR). BMMNCs were flushed from femur and tibia of implated animals and underwent RBC lysis using ACK lysis buffer (Cambrex, Mass.). Peripheral blood was collected by retro-orbital bleed and 40 μl of peripheral blood was pre-treated with ACK buffer for red blood cells lysis.
Cells from BM, tumor or peripheral blood were stained with a series of monoclonal antibodies including, CD11b, Gr1, CD19, CD90, VEGFR2, CXCR4, L-Selectin2 (all from BD BioSciences, CA), VEGFR1 (R&D, CA), Tie2 (eBioSciences, CA) along with appropriate isotype control to investigate the myeloid and lymphoid fractions in each compartment. FACS data were acquired on FACS calibur and analyzed by Cell Quest Pro software (BD Biosciences).
To isolate GFP+ cells and/or CD11b+Gr1+, single cell suspension was provided from the bone marrow or tumors of implanted mice. Cells and were stained with anti-CD11b conjugated to APC and anti-Gr1 conjugated to PE. Populations of GFP, GFP−, CD11b+Gr1+ and CD11b−Gr1− cells were isolated in a FACS Vantage machine and post-sort analysis ensured the purity of the population of interest in each compartment.

[4] = system: LLC tumors; test: Tumor growth of LLC tumors in mice; assay type: in vivo, mouse; details: LLC in C57BL/6; 5FU 50 mg/kg once a week, Gemcitabine 120 mg/kg twice a week, IP; day 17
Procedure: as §1
as §2, with “Inc.). Anti-CD11b+ antibody (eBioSciences), anti-L-selectin (BD BioSciences) and anti-CXCR4 (Torrey Pines Lab) were used in FACS experiments.” for “Inc.).”, “above. […]” for “above.”
as §3

[5] = system: B16F1 tumors; test: Tumor growth of B16F1 tumors in mice; assay type: in vivo, mouse; details: B16F1 in C57BL/6; compared to anti-VEGF treatment; day 17
Procedure: as §1
as §2, with “Inc.). Anti-CD11b+ antibody (eBioSciences), anti-L-selectin (BD BioSciences) and anti-CXCR4 (Torrey Pines Lab) were used in FACS experiments.” for “Inc.).”, “above. […]” for “above.”
as §3

[6] = system: EL4 tumors; test: In vivo treatment with clodronate liposomes and anti-VEGF, EL4 tumor volume; design: species or system mouse; details: mice bearing resistant tumors
Procedure: In vivo treatment to examine for macrophage depletion and tumor expression: EL4, the murine lymphocyte leukemia cell line, was used. Treatment was started 48 hours after implanting EL4 tumor cells (5×10^6, 0.1 ml vol. in matrigel) in nude mice. Treatment was as follows: Group 1: 8 mice, twice a week PBS-liposome 200 μl IV and Ragweed IgG 2×5 mg/kg/week 100 μl ip.; Group 2: 8 mice, twice a Week: PBS-liposome 200 μl IV and G6-31 2×5 mg/kg/week 100 μl ip.; Group 3: 8 mice, twice a week: Clodronate-liposome 200 μl IV. Ragweed IgG 2×5 mg/kg/week 100 μl ip.; Group 4: 8 mice twice a week: Clodronate-liposome 200 μl IV. G6-31 2×5 mg/kg/week 100 μl ip. Group 5: 8 mice twice a week: Clodronate-liposome 200 μl Iv. PBS twice a week 100 μl ip. 3 mice of each group were pre-bled for 50 μl of whole blood for FACS macrophage cell population evaluation. 3 mice of each group were bled (optical) for 100 μl of whole blood at 1 hour after each PBS-liposome or Clodronate-liposome injection for FACS analysis. The study continued until sufficient tumor growth (not beyond 5 weeks). Tumor growth was defined as sufficient if a tumor was greater than 20 mm in length. Tumor size was measured weekly (1×w×h). […] At the endpoint of the experiment the animals were sacrificed, the tumors, measured one final time then extracted, weighed and then fixed. […]

[7] = system: HUVEC cells; test: Angiogenic sprouting and capillary lumen formation assay; assay type: cell-based, human; details: 1.25 μg/ml with D551 fibroblasts, day 10
Procedure: See FIG. 13, Panel A and Pane B on day 10. In the assays, HUVEC cells were thawed at low passage number a day before the cells were coated on beads. The cells were detached at about 80% confluency and coated on cytodex microbeads (a cross-linked dextran matrix) with HUVEC (400 cells/bead) for 4 hours at 37° C. Beads and free HUVEC cells were transferred to a flask and cultured overnight. The beads were detached and they were mixed with fibrinogen (bovine plasma) (250 μg/ml). Fibrinogen was then converted to insoluble fibrin gel by adding thrombin. There are about 100 beads/12-well plate. The beads were cultured with 40,000 D551 fibroblasts and VEGF as positive controls, D551 or VEGF as negative controls, MCP-1 and D551, or MIP-1alpha and D551. The media was changed everyday. The cultures were stained with biotinylated anti-human CD31 and Cy3 streptavidin overnight with extensive washes. Pictures were taken at 60 hours, 6 days and 10 days.

[8] = system: xenograft models; details: most xenograft models tested; cited from earlier work
[9] = system: human cancers, including renal and ovarian carcinomas; details: clinical evaluation; cited from earlier work

| Molecule | tumor response to chemotherapy (tumor volume) [1] | tumor response to chemotherapy (tumor volume) [2] | CD11b+Gr1+ cells in B16F1 tumors after chemotherapy [3] | tumor response to chemotherapy (tumor volume) [4] | tumor response to chemotherapy (tumor volume) [5] | angiogenic activity (sprouting and capillary lumen formation) [7] | also measured |
| --- | --- | --- | --- | --- | --- | --- | --- |
| O=c1[nH]cc(F)c(=O)[nH]1 [5FU, 5-Fluorouracil] | completely sensitive | complete response | lack of CD11b+Gr1+ cells | complete response | resistance | – | BM CD11b+Gr1+ cells after chemotherapy ([3]; bone marrow, all tumor types): complete exhaustion |
| Nc1ccn([C@@H]2O[C@H](CO)[C@@H](O)C2(F)F)c(=O)n1 [Gemcitabine] | completely sensitive | partial resistance | lack of CD11b+Gr1+ cells | partial resistance | resistance | – | – |
| O=P(O)(O)C(Cl)(Cl)P(=O)(O)O [clodronate] | – | – | – | – | – | – | efficacy of anti-VEGF treatment after depletion of TAMs [6]: improved |
| MCP-1: monocyte chemoattractant protein-1 | – | – | – | – | – | angiogenic activity | – |
| bevacizumab: humanized anti-VEGF monoclonal antibody | – | – | – | – | – | – | tumor growth and tumor angiogenesis [8]: significantly inhibited tumor growth and reduced tumor angiogenesis; single-agent activity [9]: significant single-agent activity |
| MIP-1alpha: macrophage inflammatory protein-1a (protein, UniProt P10147 24-92, looked up) C-C motif chemokine 3: SLAADTPTACCFSYTSRQIPQNFIADYFETSSQCSKPGVIFLTKRSRQVCADPSEEWVQKYVSDLELSA | – | – | – | – | – | angiogenic activity | – |
